The test system of one experiment is Salmonella typhimurium. Nature of the experiment: Antibacterial activity against Salmonella enterica subsp. enterica serovar Typhimurium at 1000 ug/disc. The format is functional, organism-based.
The subject of another experiment is Staphylococcus aureus. Nature of the experiment: Antibacterial activity against Staphylococcus aureus at 1000 ug/disc. The format is functional.
The next experiment deals with Escherichia coli. As to the kind of experiment: Antibacterial activity against Escherichia coli at 1000 ug/disk. The format is functional.
A further experiment relates to Bacillus subtilis. As to the kind of experiment: Antibacterial activity against Bacillus subtilis at 1000 ug/disk. The format is functional. Conditions: read-out: IZ.

Molecules are shown by their SMILES. Calls of active or inactive are those of the source. The rule behind the calls is not given here.

For `O=c1oc2ccccc2c(O)c1C1=NNC(c2cn[nH]c2-c2ccccc2O)C1` (configuration not stated), the “inhibition zone (IZ)” value with Salmonella typhimurium is “inactive”. In addition, the zone of inhibition at 1000 µg/disc worked out at 20 mm in the experiment on Staphylococcus aureus (read-out: IZ), 12 mm in the experiment with Escherichia coli (read-out: IZ) and 25 mm in the experiment with Bacillus subtilis.
As for `O=C(/C=C/c1coc2ccccc2c1=O)c1c(O)c2ccccc2oc1=O`, the “inhibition zone (IZ)” value in the experiment on Salmonella typhimurium, with Staphylococcus aureus and in the experiment on Escherichia coli was “inactive” throughout. The zone of inhibition at 1000 µg/disc with Bacillus subtilis is 12 mm.
Consider `O=c1oc2ccccc2c(O)c1C1=NN(c2ccccc2)C(c2cnn(-c3ccccc3)c2-c2ccccc2O)C1` (configuration not stated), for which the “inhibition zone (IZ)” value in the experiment with Salmonella typhimurium, with Staphylococcus aureus and with Escherichia coli was “inactive” throughout. The zone of inhibition at 1000 µg/disc in the experiment with Bacillus subtilis amounted to 10 mm.

These data come from ChEMBL document CHEMBL3045283, “Synthesis and biological activity of heterocycles from chalcone” (2008).
